The values below come from US5624931A, “Pyrazole derivatives” (Fujisawa Pharmaceutical Co., Ltd., priority 1991, dated 1997).

Assay [1] relates to tumor necrosis factor (TNF) production, human peripheral blood monocyte. Kind of assay: Inhibitory activity on the production of tumor necrosis factor (TNF) in LPS-stimulated purified human peripheral blood monocytes (TNF ELISA). To be noted: 48 h, bacterial lipopolysaccharide 1 μg/10^4 cells, 2 days at 37° C., read-out: IC50 (inhibition of TNF production). Type of assay: cell-based. The procedure: (b) Inhibitory activity on the production of tumor necrosis factor (TNF)
Purified human peripheral blood monocyte were stimulated with bacterial lipopolysaccharide (1 μg/10^4 cells) in the absence or presence of appropriately diluted test compound for 2 days at 37° C. in a humidified 5% CO2 atmosphere. Culture supernatants were tested for TNF ELISA assay.
TNF levels were quantified by a commercial ELISA kit (Endogen, Inc. USA) using a sandwich technique. The sensitivity levels for the detection of TNF were 12 pg/ml.
(§1) The inhibitory concentration that caused a 50% inhibition (IC50) was calculated by regression analysis of the dose-response data.

Assay [2] has as its system Interleukin-1 (IL-1) production, human peripheral blood monocyte. Kind of assay: Inhibitory activity on the production of Interleukin-1 (IL-1) in LPS-stimulated purified human peripheral blood monocytes (IL-1 ELISA). Type of assay: cell-based. To be noted: 48 h, bacterial lipopolysaccharide 1 μg/10^4 cells, 2 days at 37° C., IL-1β ELISA, read-out: IC50 (inhibition of IL-1 production). The procedure: (a) Inhibitory activity on the production of Interleukin-1 (IL-1)
Purified human peripheral blood monocyte were stimulated with bacterial lipopolysaccharide (1 μg/10^4 cells) in the absence or presence of appropriately diluted test compound for 2 days at 37° C. in a humidified 5% CO2 atmosphere. Culture supernatants were tested for IL-1 ELISA assay.
Test compound was dissolved in absolute DMSO (dimethyl sulfoxide) to achieve 10 mM stock solutions and was subsequently diluted in serum free RPMI1640.
IL-1 levels were quantified by a commercial ELISA kit (Ohtsuka assay, Japan) using a sandwich technique. The sensitivity levels for the detection of IL-1β were 20 pg/ml.
as §1
(In general: An ELISA detects its analyte on a solid surface through an enzyme-linked reagent.)

A word on the IC50: it is the concentration that gives 50% inhibition. Consider `Fc1ccc(-c2nn3c(c2-c2ccncc2)NCCC3)cc1` [Example 2-(1), 2-(4-fluorophenyl)-3-(pyridin-4-yl)-4,5,6,7-tetrahydropyrazolo[1,5-a]pyrimidine], for which the IC50 is 0.116 µM in assay [1] and 0.038 µM in assay [2].
